Values of other authors in patent US20230024950A1, “METHODS FOR TREATING NEURODEGENERATIVE DISORDERS” (Alzheon, Inc., priority 2019, published 2023).

What was measured:
Aβ oligomers = Aβ oligomers (Homo sapiens, UniProt P05067); conditions: in vitro
[1] = not given; remark: listed apart in the source

Chain of Aβ oligomers (P05067 672-713 limits assumed): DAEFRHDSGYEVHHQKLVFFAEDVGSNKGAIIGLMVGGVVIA

In the case of `NCCCS(=O)(=O)O` [Tramiprosate, 3-amino-1-propanesulfonic acid], the safety profile (Phase 3 trials and safety extension study, exposures of up to 2.5 years) is listed as “favorable safety profile”, the “effect on MRI imaging: brain hippocampal volume (hippocampus atrophy)” value (Phase 3 trials, mild-to-moderate AD, dose-dependent) is listed as “slowing the reduction of brain hippocampal volume” and the benefit on cognition (subgroup analysis of APOE4/4 homozygotes, 100 mg BID or 150 mg BID over 78 weeks) is listed as “positive and clinically meaningful benefit on cognition”. The cognitive efficacy (subset of APOE4 carriers, especially APOE4/4 homozygotes) was “positive cognitive efficacy” and the “formation of Aβ oligomers” value (Aβ oligomers) was “inhibits the formation of Aβ oligomers in vitro”.

In the case of `CC(C)[C@H](N)C(=O)NCCCS(=O)(=O)O` [ALZ-801, valyl-3-amino-1-propanesulfonic acid], the “plasma exposure compared with tramiprosate from the Phase 3 studies” value ([1]; Phase 1b) is listed as “bioequivalence to plasma exposures to tramiprosate” and the “pharmacokinetics and oral tolerability compared with tramiprosate” value ([1]; oral) is listed as “improved pharmacokinetics and oral tolerability over tramiprosate”.
